US8512739B2, “Use of low-glycemic sweeteners in food and beverage compositions” (Cargill, Incorporated, priority 2002, dated 2013)

system: Enzyme from the LM NRRL-B-21297 strain; experiment: Suitability of acceptors: oligosaccharide formation from sucrose and acceptor; format: biochemical, Leuconostoc mesenteroides; conditions: 0.4% by weight each of sucrose and acceptor, pH 6, 2 hours at 37° C.; DP3-DP7 minus starting material
Protocol: Enzyme from the LM NRRL-B-21297 strain was tested to determine the suitability of various acceptors. Enzyme was prepared using the methods described herein.
In determining the suitability of the preparation of the sucrose/acceptor products, 0.4% by weight of each sucrose and acceptor were mixed with enzyme solution in 0.01 M sodium gluconate buffer, pH 6, and the reaction proceeded for 2 hours at 37° C.
The carbohydrate profiles of products generated by the enzyme reactions with the blends of sucrose and syrups and syrup solids herein, were analyzed by high performance liquid chromatography (HPLC) using two (2) Bio-Rad Aminex HPX42A carbohydrate columns (300 mm×7.8 mm) available from Bio-Rad, Hercules, Calif., in succession, with water as the eluate at 0.2 ml/min, at a temperature of 65° C.
The reaction rate was estimated based on the amount of oligosaccharides generated from each acceptor and normalized against the fructose concentration in each reaction. The results are reported below in Table 2.0. The values reported for oligosaccharides to fructose are for DP3-DP7 minus starting material.

Compound | Weight Ratio of Oligosaccharide to Fructose
OC[C@H]1O[C@H](O[C@H]2[C@H](O)[C@@H](O)C(O)O[C@@H]2CO)[C@H](O)[C@@H](O)[C@@H]1O (mixture of isomers) [Maltose, reference compound] | 2.02
OC[C@H]1O[C@H](OC[C@H]2OC(O)[C@H](O)[C@@H](O)[C@@H]2O)[C@H](O)[C@@H](O)[C@@H]1O (stereo partly drawn) [Isomaltose] | 0.93
OC[C@H]1O[C@H](O[C@H]2[C@H](O)[C@@H](O)[C@@H](O[C@H]3[C@H](O)[C@@H](O)[C@@H](O[C@H]4[C@H](O)[C@@H](O)C(O)O[C@@H]4CO)O[C@@H]3CO)O[C@@H]2CO)[C@H](O)[C@@H](O)[C@@H]1O (stereo partly drawn) [Maltotetrose] | 0.38
OC[C@H]1O[C@H](OC[C@H]2O[C@H](O[C@H]3[C@H](O)[C@@H](O)C(O)O[C@@H]3CO)[C@H](O)[C@@H](O)[C@@H]2O)[C@H](O)[C@@H](O)[C@@H]1O (stereo partly drawn) [Panose] | 1.56
Maltotriose | 0.53

same assay, conditions: compared with the acceptors of Table 2.0, two hour reaction time

Compound | suitability as acceptor
O=C[C@@H](O)[C@H](O)[C@H](O)CO [arabinose] | not as effective acceptors
O[C@H]1[C@H](O)[C@@H](O)[C@H](O)[C@@H](O)[C@H]1O [myo-inositol] | not as effective acceptors
O=C[C@H](O)[C@@H](O)[C@H](O)CO [xylose] | not as effective acceptors

system: rat intestinal powder; experiment: In vitro digestibility assay using rat intestinal powder; format: in vitro ADME; conditions: in 4 hours
Protocol: The results provided in this example are derived from in vitro digestibility assays using rat intestinal powder available from Sigma/Aldrich, Saint Louis, Mo., Catalog Number I-1630). […] Free glucose concentration in the reaction mixture was analyzed over time by the HPLC method described above.

Compound | digested [%]
OC[C@H]1O[C@H](O[C@H]2[C@H](O)[C@@H](O)C(O)O[C@@H]2CO)[C@H](O)[C@@H](O)[C@@H]1O (mixture of isomers) [Maltose, reference compound] | 88
